Assay results reported in PMC8102066 (eLife, 2021).
Where “and” joins values, the source holds several entries; their conditions need not be identical. Identical values can stand only once. Like-named read-outs stand apart in the source and are kept apart here.

Assays:
mGluR2-3xTM4 [1] = target: mGluR2-3xTM4 (Rattus norvegicus, UniProt P31421, A677S/A681F/A685G); experiment: Inter-LBD FRET (N-terminal SNAP-tags), live cells; details: mGluR2-3xTM4, inter-LBD FRET
mGluR3 [2] = target: mGluR3 (Rattus norvegicus, UniProt P31422, INS669ASEIGTGFPFDPHYVEVLGERMHYVDVGPRDGTPVLFLHGNPTSSYVWRNIIPHVAPTHRCIAPDLIGMGKSDKPDLGYFFDDHVRFMDAFIEALGLEEVVLVIHDWGSALGFHWAKRNPERVKGIAFMEFIRPIPTWDEWPEFARETFQAFRTTDVGRKLIIDQNVFIEGTLPMGVVRPLTEVEMDHYREPFLNPVDREPLWRFPNELPIAGEPANIVALVEEYMDWLHQSPVPKLLFWGTPGVLIPPAEAARLAKSLPNCKAVDIGPGLNLLQEDNPDLIGSEIARWLSTLEISGLE); experiment: Inter-TMD FRET sensor (HaloTag in ICL2), live cells; details: for FRET response amplitude: mGluR3, inter-TMD FRET;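 as to all read-outs here: receptor HaloTag labeled with JF549 donor and JF646 acceptor (1:3), FRET taken as acceptor over summed donor plus acceptor fluorescence intensity, imaged at room temperature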
mGluR3 [3] = target: mGluR3 (Rattus norvegicus, UniProt P31422); experiment: Inter-LBD FRET (N-terminal SNAP-tags), live cells; details: for FRET response amplitude: mGluR3, inter-LBD FRET
mGluR3-C127A-3xTM4 = mGluR3-C127A-3xTM4 (Rattus norvegicus, UniProt P31422, C127A/F690A/G694A/S686A); experiment: SiMPull subunit counting in the presence of ligands; details: SNAP-mGluR3-C127A-3xTM4 in presence of the ligand; single replicates per experiment day
mGluR2-F584I-G587T = target: T1, mGluR2-F584I-G587T (Rattus norvegicus, UniProt P31421, F584I/G587T); experiment: Calcium imaging in HEK 293 T cells; type: cell-based
T1 construct: calcium imaging experiments with mutations in the full-length mGluR2 background; expressed in transfected cells; host or cells: HEK 293T
Procedure: (§1) Approximately 30 ROIs were analyzed per movie.

mGluR2-AA695SV = target: T2, mGluR2-AA695SV (Rattus norvegicus, UniProt P31421, A695S/A696V); experiment: Calcium imaging in HEK 293 T cells; type: cell-based
T2 construct: calcium imaging experiments with mutations in the full-length mGluR2 background; expressed in transfected cells; host or cells: HEK 293T
Procedure: as §1

mGluR3-G694A = mGluR3-G694A (Rattus norvegicus, UniProt P31422, G694A); experiment: Calcium imaging in HEK 293 T cells; details: for Calcium response amplitude: mGluR3-G694A
mGluR3-C127A-I788A = mGluR3-C127A-I788A (Rattus norvegicus, UniProt P31422, C127A/I788A); experiment: SiMPull subunit counting in the presence of ligands
mGluR2-C121A-3xTM4-I779A = target: T3, mGluR2-C121A-3xTM4-I779A (Rattus norvegicus, UniProt P31421, A677S/A681F/A685G/C121A/I779A); experiment: as above; details: SNAP-mGluR2-C121A-3xTM4-I779A in presence of the ligand; single replicates per experiment day
T3 construct: expressed in transfected cells; host or cells: HEK 293 T (detergent lysate, pulled down by anti-HA antibody)

mGluR2 = mGluR2 (Rattus norvegicus, UniProt P31421); experiment: Inter-LBD FRET (N-terminal SNAP-tags), live cells; details: mGluR2, inter-LBD FRET
mGluR2-I779W = target: T4, mGluR2-I779W (Rattus norvegicus, UniProt P31421, I779W); experiment: Calcium imaging in HEK 293 T cells; type: cell-based; parameters: scale not given here
T4 construct: we performed calcium imaging experiments with mutations in the full-length mGluR2 background; expressed in transfected cells; host or cells: HEK 293 T
Procedure: as §1

mGluR2-3xTM4 [4] = target: T5, mGluR2-3xTM4 (Rattus norvegicus, UniProt P31421, A677S/A681F/A685G/INS660ASEIGTGFPFDPHYVEVLGERMHYVDVGPRDGTPVLFLHGNPTSSYVWRNIIPHVAPTHRCIAPDLIGMGKSDKPDLGYFFDDHVRFMDAFIEALGLEEVVLVIHDWGSALGFHWAKRNPERVKGIAFMEFIRPIPTWDEWPEFARETFQAFRTTDVGRKLIIDQNVFIEGTLPMGVVRPLTEVEMDHYREPFLNPVDREPLWRFPNELPIAGEPANIVALVEEYMDWLHQSPVPKLLFWGTPGVLIPPAEAARLAKSLPNCKAVDIGPGLNLLQEDNPDLIGSEIARWLSTLEISGLE); experiment: Inter-TMD FRET sensor (HaloTag in ICL2), live cells; type: cell-based
T5 construct: expressed in transfected cells; host or cells: HEK 293T
T5 sequence (P31421 with tags, fused parts or gaps with the stated changes): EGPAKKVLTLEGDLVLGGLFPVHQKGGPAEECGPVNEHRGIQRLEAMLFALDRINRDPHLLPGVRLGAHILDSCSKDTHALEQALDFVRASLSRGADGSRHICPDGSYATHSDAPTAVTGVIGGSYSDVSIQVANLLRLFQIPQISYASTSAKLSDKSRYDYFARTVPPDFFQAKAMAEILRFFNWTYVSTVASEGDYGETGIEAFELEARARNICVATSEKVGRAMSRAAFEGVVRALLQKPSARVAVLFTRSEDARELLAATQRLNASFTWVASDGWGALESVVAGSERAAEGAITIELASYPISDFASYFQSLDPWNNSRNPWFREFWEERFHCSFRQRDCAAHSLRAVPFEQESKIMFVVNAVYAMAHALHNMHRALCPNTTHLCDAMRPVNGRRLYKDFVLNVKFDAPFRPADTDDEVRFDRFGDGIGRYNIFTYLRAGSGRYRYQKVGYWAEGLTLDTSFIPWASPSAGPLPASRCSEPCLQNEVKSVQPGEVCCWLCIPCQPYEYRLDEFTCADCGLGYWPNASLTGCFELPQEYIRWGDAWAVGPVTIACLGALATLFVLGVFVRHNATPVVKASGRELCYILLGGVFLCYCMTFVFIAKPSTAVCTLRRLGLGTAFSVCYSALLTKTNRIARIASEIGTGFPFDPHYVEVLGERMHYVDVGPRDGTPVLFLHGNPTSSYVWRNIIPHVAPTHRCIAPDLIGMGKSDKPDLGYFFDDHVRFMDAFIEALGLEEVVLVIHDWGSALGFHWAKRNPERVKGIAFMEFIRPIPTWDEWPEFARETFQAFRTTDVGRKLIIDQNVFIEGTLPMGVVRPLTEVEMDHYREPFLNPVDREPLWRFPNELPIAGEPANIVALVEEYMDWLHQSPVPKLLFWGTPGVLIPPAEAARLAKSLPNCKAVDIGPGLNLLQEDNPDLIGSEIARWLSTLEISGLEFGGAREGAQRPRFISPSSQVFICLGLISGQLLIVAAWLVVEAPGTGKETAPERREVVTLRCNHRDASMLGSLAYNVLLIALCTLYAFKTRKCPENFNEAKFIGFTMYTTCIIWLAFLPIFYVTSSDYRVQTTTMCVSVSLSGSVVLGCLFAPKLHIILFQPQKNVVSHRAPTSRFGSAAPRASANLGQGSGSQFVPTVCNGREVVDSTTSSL

Sequence of mGluR3-G694A (P31422 23-879 G694A): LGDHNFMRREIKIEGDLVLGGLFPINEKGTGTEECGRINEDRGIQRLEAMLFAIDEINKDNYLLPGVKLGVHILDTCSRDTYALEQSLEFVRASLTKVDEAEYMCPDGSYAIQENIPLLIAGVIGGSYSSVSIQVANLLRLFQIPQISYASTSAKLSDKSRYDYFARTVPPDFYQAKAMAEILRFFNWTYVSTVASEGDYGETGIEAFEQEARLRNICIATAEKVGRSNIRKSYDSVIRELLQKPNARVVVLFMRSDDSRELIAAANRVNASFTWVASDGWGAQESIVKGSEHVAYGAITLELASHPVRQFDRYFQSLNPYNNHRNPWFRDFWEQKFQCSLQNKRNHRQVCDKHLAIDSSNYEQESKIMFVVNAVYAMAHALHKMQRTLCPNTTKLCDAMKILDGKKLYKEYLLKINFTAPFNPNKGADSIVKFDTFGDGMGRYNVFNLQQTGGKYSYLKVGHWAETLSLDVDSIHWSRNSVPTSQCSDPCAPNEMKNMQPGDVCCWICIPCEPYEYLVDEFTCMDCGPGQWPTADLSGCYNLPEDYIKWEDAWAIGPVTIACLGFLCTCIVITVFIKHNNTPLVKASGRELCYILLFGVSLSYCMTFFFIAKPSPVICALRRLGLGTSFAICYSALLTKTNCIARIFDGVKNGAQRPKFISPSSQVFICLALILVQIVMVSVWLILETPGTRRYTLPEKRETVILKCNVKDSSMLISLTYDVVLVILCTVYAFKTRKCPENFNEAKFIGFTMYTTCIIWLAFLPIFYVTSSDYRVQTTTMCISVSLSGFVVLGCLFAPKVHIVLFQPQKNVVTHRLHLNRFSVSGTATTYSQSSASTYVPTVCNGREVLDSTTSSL
T2 sequence (P31421 19-872 A695S/A696V): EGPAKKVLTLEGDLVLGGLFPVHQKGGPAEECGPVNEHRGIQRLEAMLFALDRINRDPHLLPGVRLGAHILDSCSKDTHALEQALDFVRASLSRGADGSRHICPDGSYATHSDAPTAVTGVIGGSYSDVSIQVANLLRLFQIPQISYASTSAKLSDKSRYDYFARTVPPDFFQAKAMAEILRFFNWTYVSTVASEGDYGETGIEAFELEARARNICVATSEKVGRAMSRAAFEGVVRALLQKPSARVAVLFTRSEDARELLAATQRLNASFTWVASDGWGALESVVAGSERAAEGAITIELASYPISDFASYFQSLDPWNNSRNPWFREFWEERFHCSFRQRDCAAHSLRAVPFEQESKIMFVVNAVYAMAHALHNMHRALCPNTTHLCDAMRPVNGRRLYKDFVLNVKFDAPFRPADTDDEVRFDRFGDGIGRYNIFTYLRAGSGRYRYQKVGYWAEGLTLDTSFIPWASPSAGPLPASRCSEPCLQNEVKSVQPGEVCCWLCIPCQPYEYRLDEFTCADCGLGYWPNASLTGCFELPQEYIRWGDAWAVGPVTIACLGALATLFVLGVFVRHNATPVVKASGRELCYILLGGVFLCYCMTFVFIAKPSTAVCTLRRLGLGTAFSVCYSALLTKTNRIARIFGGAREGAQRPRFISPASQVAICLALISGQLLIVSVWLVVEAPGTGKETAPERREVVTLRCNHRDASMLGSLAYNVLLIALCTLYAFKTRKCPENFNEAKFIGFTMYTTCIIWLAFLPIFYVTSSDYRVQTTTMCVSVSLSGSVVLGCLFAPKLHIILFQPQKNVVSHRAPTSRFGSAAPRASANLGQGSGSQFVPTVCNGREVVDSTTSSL
Sequence of mGluR3-C127A-I788A (P31422 23-879 C127A/I788A): as the sequence (P31422 23-879 G694A) above, with C105A, A672G, I766A counted along it
Sequence of UniProt P31422 (P31422 with tags, fused parts or gaps with the stated changes): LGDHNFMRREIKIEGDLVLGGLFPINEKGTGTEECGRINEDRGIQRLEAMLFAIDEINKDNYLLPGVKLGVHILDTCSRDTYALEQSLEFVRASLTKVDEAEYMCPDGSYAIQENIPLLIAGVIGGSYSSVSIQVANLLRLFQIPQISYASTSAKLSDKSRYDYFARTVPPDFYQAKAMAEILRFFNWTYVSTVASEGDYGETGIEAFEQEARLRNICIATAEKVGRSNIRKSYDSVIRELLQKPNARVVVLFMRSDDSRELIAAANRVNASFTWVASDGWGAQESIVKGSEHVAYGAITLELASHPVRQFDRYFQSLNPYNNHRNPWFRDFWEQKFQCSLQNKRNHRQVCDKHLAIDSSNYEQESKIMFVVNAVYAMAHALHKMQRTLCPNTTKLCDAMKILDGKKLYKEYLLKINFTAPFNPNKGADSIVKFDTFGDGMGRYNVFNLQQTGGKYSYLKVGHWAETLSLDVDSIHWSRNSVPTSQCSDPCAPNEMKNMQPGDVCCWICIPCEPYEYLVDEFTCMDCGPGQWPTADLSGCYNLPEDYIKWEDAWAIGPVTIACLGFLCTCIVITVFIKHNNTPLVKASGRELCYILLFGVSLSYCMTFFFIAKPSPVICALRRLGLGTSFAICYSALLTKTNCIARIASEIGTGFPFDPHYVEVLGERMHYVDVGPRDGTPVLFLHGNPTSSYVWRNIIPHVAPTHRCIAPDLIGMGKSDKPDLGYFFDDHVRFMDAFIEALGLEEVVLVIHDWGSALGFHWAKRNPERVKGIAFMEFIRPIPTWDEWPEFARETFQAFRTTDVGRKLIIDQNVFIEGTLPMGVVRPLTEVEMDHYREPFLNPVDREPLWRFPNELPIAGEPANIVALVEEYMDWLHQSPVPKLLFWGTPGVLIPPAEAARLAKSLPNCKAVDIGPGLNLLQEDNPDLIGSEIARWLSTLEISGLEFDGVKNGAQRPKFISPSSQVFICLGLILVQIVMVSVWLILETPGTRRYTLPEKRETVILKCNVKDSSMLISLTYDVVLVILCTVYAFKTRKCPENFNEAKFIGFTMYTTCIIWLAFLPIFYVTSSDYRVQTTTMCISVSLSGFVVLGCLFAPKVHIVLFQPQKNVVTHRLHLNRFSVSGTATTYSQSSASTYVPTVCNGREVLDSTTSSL
Sequence of mGluR3-C127A-3xTM4 (P31422 23-879 C127A/S686A/F690A/G694A): as the sequence (P31422 23-879 G694A) above, with C105A, S664A, F668A counted along it
T1 sequence (P31421 19-872 F584I/G587T): as the sequence (P31421 19-872 A695S/A696V) above, with F566I, G569T, S677A, V678A counted along it
T3 sequence (P31421 19-872 C121A/A677S/A681F/A685G/I779A): as the sequence (P31421 19-872 A695S/A696V) above, with C103A, A659S, A663F, A667G, S677A, V678A, I761A counted along it
Sequence of mGluR2 (P31421 19-872): as the sequence (P31421 19-872 A695S/A696V) above, with S677A, V678A counted along it
T4 sequence (P31421 19-872 I779W): as the sequence (P31421 19-872 A695S/A696V) above, with S677A, V678A, I761W counted along it
Sequence of mGluR3 (Rattus norvegicus, UniProt P31422) (P31422 23-879): as the sequence (P31422 23-879 G694A) above, with A672G counted along it
Sequence of mGluR2-3xTM4 (Rattus norvegicus, UniProt P31421, A677S/A681F/A685G) (P31421 19-872 A677S/A681F/A685G): as the sequence (P31421 19-872 A695S/A696V) above, with A659S, A663F, A667G, S677A, V678A counted along it

Question: What does the source list for `N[C@@H](CCC(=O)O)C(=O)O` [glutamate]?
Answer: FRET response amplitude (mGluR2-3xTM4 [1]; Glutamate 10 nM): 0.00; FRET response amplitude (mGluR2-3xTM4 [1]; Glutamate 100 nM): 0.00; FRET response amplitude (mGluR2-3xTM4 [1]; Glutamate 3 uM): 0.10; FRET response amplitude (mGluR2-3xTM4 [1]; Glutamate 10 uM): 0.49 and 0.37; FRET response amplitude (mGluR2-3xTM4 [1]; Glutamate 100 uM): 1.00 and 0.97; FRET response amplitude (mGluR2-3xTM4 [1]; Glutamate 1 mM): 1.00; FRET response amplitude (mGluR3 [2]; Glutamate 1 nM): 0.00; FRET response amplitude (mGluR3 [2]; Glutamate 1 uM): 0.66 and 0.83 and 0.95 and 0.97 and 0.93 and 0.79 and 0.73; FRET response amplitude (mGluR3 [2]; Glutamate 10 uM): 0.80 and 0.95 and 0.97 and 1.05 and 0.98 and 0.87; FRET response amplitude (mGluR3 [2]; Glutamate 100 uM): 0.99 and 0.97 and 0.96 and 1.00; FRET response amplitude (mGluR3 [2]; Glutamate 1 mM): 1.00; EC50 (mGluR3 [2]; read-out: Glutamate EC50, inter-TMD FRET, normalized to saturating (1 mM) glutamate, unit inferred): 230 ± 80 nM; FRET response amplitude (mGluR3 [3]; Glutamate 1 nM): 0.00; FRET response amplitude (mGluR3 [3]; Glutamate 10 nM): 0.00; FRET response amplitude (mGluR3 [3]; Glutamate 1 uM): 0.66 and 0.53; FRET response amplitude (mGluR3 [3]; Glutamate 3 uM): 1.00 and 0.63; FRET response amplitude (mGluR3 [3]; Glutamate 10 uM): 1.00 and 0.86; FRET response amplitude (mGluR3 [3]; Glutamate 100 uM): 1.00; EC50 (mGluR3 [3]; read-out: Glutamate EC50, LBD FRET, normalized to saturating (1 mM) glutamate, unit inferred): 640 ± 100 nM; % Dimerization (mGluR3-C127A-3xTM4): 75.71% and 66.43% and 55.31% and 68.06% and 59.35% and 70.85%; Calcium response amplitude (mGluR2-F584I-G587T; Glutamate 100 nM): 0.00; Calcium response amplitude (mGluR2-F584I-G587T; Glutamate 3 uM): 0.62 and 0.57 and 0.48; Calcium response amplitude (mGluR2-F584I-G587T; Glutamate 10 uM): 0.87 and 0.71; Calcium response amplitude (mGluR2-AA695SV; Glutamate 10 nM): 0.00; Calcium response amplitude (mGluR2-AA695SV; Glutamate 100 nM): 0.00; Calcium response amplitude (mGluR2-AA695SV; Glutamate 10 uM): 0.72 and 0.97; Calcium response amplitude (mGluR2-AA695SV; Glutamate 100 uM): 1.00; Calcium response amplitude (mGluR2-AA695SV; Glutamate 1 mM): 1.00; Calcium response amplitude (mGluR3-G694A; Glutamate 10 nM): 0.00; Calcium response amplitude (mGluR3-G694A; Glutamate 5 uM): 0.50 and 0.59 and 0.67; Calcium response amplitude (mGluR3-G694A; Glutamate 10 uM): 0.98; Calcium response amplitude (mGluR3-G694A; Glutamate 100 uM): 1.00; Calcium response amplitude (mGluR3-G694A; Glutamate 1 mM): 1.00; EC50 (mGluR3-G694A; read-out: Glutamate EC50 (micromolar), calcium imaging, Fig 3F source data): 4.65 µM; EC50 (mGluR3-G694A; read-out: Glutamate EC50, calcium imaging, normalized to saturating (1 mM) glutamate): 4.66 ± 0.03 µM; % Dimerization (mGluR3-C127A-I788A; SNAP-mGluR3-C127A-I788A in presence of the ligand, single replicates per experiment day): 41.49% and 28.78% and 34.64% and 33.27% and 41.72% and 37.93%; effect of ligand on dimerization (SiMPull) (mGluR3-C127A-I788A; saturating concentration): no difference; % Dimerization (mGluR2-C121A-3xTM4-I779A): 44.05% and 34.78% and 55.93% and 49.13% and 47.14% and 45.12%; FRET response amplitude (mGluR2; Glutamate 10 nM): 0.00; FRET response amplitude (mGluR2; Glutamate 100 nM): 0.00; FRET response amplitude (mGluR2; Glutamate 3 uM): 0.13 and 0.11 and 0.12 and 0.09; FRET response amplitude (mGluR2; Glutamate 10 uM): 0.41 and 0.51 and 0.46 and 0.30; FRET response amplitude (mGluR2; Glutamate 100 uM): 0.98 and 1.00 and 0.985; FRET response amplitude (mGluR2; Glutamate 1 mM): 1.00; Calcium response amplitude (mGluR2-I779W; Glutamate concentration 10 nM): 0.00; Calcium response amplitude (mGluR2-I779W; Glutamate concentration 5 uM): 0.52 and 0.53; Calcium response amplitude (mGluR2-I779W; Glutamate concentration 10 uM): 0.95 and 0.79 and 0.94 and 0.76; Calcium response amplitude (mGluR2-I779W; Glutamate concentration 100 uM): 1.00; Calcium response amplitude (mGluR2-I779W; Glutamate concentration 1 mM): 1.00; FRET response amplitude (mGluR2-3xTM4 [4]; Glutamate 10 nM): 0.00; FRET response amplitude (mGluR2-3xTM4 [4]; Glutamate 100 nM): 0.0446; FRET response amplitude (mGluR2-3xTM4 [4]; Glutamate 1 uM): 0.14 and 0.10 and 0.11; FRET response amplitude (mGluR2-3xTM4 [4]; Glutamate 10 uM): 0.89 and 0.71; FRET response amplitude (mGluR2-3xTM4 [4]; Glutamate 100 uM): 1.00; FRET response amplitude (mGluR2-3xTM4 [4]; Glutamate 1 mM): 1.00
